Values of other authors, collected in US6818776B2, “Alkali metal salt of thiazolidine-2,4-dione derivative” (Kyorin Pharmaceutical Co., Ltd., priority 2000, dated 2004).

Experiments:
[1] = reported in M. Nomura et al, Bioorg. Med. Chem. Lett., 1999, 9, 533
[2] = test system: human peroxisome proliferator-activated receptor (PPAR); conditions: reported in K. Murakami et al, Diabetes. 1998, 47, 1841

For `COc1ccc(CC2SC(=O)NC2=O)cc1C(=O)NCc1ccc(C(F)(F)F)cc1` (centres unmarked) [KRP-297, 5-[(2,4-Dioxothiazolidin-5-yl)methyl]-2-methoxy-N-[[4-(trifluoromethyl)phenyl]methyl]benzamide], the antihyperglycemic activity [1] is given as “excellent antihyperglycemic activity” and the “agonistic action against human PPAR” value [2] is given as “agonistic action”.
